# In patent US11267800B2, “Cyclohexyl acid triazole azines as LPA antagonists” (BRISTOL-MYERS SQUIBB COMPANY, priority 2017, dated 2022):
# Columns and labels:
# IPF patients = details: 26-week clinical trial in IPF patients (Palmer et al.); cited from earlier work
# human LPA1 = target: T1, human LPA1 (Homo sapiens, UniProt Q92633); experiment: LPA1 functional antagonist assay (calcium flux); type: cell-based; details: CHO cells overexpressing human LPA1; inhibition of calcium flux induced by 10 nM LPA; read-out: hLPA1 IC50
# T1 construct: expressed in transfected cells; host or cells: Chinese hamster ovary (CHO) cells
# T1 sequence (Q92633 whole entry): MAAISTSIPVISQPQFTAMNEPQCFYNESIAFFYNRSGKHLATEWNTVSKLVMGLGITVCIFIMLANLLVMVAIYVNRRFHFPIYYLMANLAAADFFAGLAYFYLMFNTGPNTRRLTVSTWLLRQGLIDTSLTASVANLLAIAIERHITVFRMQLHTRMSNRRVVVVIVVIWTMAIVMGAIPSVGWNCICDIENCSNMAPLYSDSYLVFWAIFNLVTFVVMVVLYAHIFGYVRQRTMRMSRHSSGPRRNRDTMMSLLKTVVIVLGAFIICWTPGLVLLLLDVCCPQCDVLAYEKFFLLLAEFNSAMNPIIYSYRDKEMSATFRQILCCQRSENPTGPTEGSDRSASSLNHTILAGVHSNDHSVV
# In short: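 Dye-loaded CHO cells overexpressing human LPA1 (30 min, 37 °C) were preincubated 20 min at room temperature with compound (0.08 nM–5 μM; 0.5% DMSO; HBSS, 20 mM HEPES, 0.1% fatty-acid-free BSA), then stimulated with 10 nM LPA. IC50 is the concentration inhibiting 50% of LPA-induced calcium flux, from a 4-parameter logistic fit.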
# nerve-injured mice = details: pretreatment, nerve-injured mice (Inoue et al.); cited from earlier work
# UUO mice = details: cited from earlier work
# [1] = system: human foetal lung fibroblasts; details: Tager et al.; cited from earlier work
# [2] = system: mouse epithelial renal cell line, MCT; details: co-treatment with LPA, MCT cells; cited from earlier work
# [3] = system: pancreatic cancer cell lines; details: cited from earlier work
compound,measurement,setting,value
Cc1noc(-c2ccc(-c3ccc(C4(C(=O)O)CC4)cc3)cc2)c1NC(=O)O[C@H](C)c1ccccc1 [BMS-986020],rate of FVC (forced vital capacity) decline,IPF patients,significantly reduce
Cc1nc(-c2nnn(C)c2COc2cc(-n3ccnn3)ncn2)ccc1O[C@H]1CCC[C@H](C(=O)O)C1 [Example 405],IC50,human LPA1,129 nM
CC(C)c1ccnc(NCc2c(-c3ccc(O[C@H]4CCC[C@H](C(=O)O)C4)c(C#N)n3)nnn2C)n1 [Example 406],IC50,human LPA1,18 nM
Cn1nnc(-c2ccc(O[C@H]3CCC[C@H](C(=O)O)C3)c(C#N)n2)c1CNc1nccc(C(C)(C)C)n1 [Example 407],IC50,human LPA1,104 nM
CCCOc1ccnc(NCc2c(-c3ccc(O[C@H]4CCC[C@H](C(=O)O)C4)c(C#N)n3)nnn2C)n1 [Example 408],IC50,human LPA1,22 nM
C[C@@H](N)[C@H]1CC[C@H](C(=O)Nc2ccncc2)CC1 [Example Y-27632],allodynia and hyperalgesia,nerve-injured mice,completely abolished
Cc1noc(-c2ccc(CSCCC(=O)O)cc2)c1NC(=O)OC(C)c1ccccc1Cl (centres unmarked) [Ki16425],development of renal fibrosis,UUO mice,closely resembled the profile of LPA1 (−/−) mice
same,chemotaxis of human foetal lung fibroblasts induced by BAL from IPF patients,[1],blocked
same,LPA-induced increase in expression of CTGF,[2],almost completely suppressed
same,LPA-induced and ascites-induced invasion activity,[3]; highly peritoneal metastatic pancreatic cancer cell line (Yamada et al.),blocked
same,in vitro migration in response to LPA and peritoneal fluid (ascites) from pancreatic cancer patients,[3]; pancreatic cancer cell lines (Yamada et al.),effectively blocked
